Test results from PMC8880564, “Design, Synthesis, and Biological Evaluation of a Novel VEGFR-2 Inhibitor Based on a 1,2,5-Oxadiazole-2-Oxide Scaffold with MAPK Signaling Pathway Inhibition” (Pharmaceuticals, 2022).

Key:
Assay in all cases: NCI-60 one-dose SRB screening
Type in all cases: cell-based
SNB-19 = settings: Homo sapiens, SNB-19, CNS Cancer, 10 µM one dose, 48 h, read-out: growth percentage
TK-10 = settings: Homo sapiens, TK-10, Renal Cancer, 10 µM one dose, 48 h, read-out: growth percentage
UO-31 = settings: Homo sapiens, UO-31, Renal Cancer, 10 µM one dose, 48 h, read-out: growth percentage
786-0 = settings: Homo sapiens, 786-0, Renal Cancer, 10 µM one dose, 48 h, read-out: growth percentage
SK-MEL-2 = settings: Homo sapiens, SK-MEL-2, Melanoma, 10 µM one dose, 48 h, read-out: growth percentage
RXF 393 = settings: Homo sapiens, RXF 393, Renal Cancer, 10 µM one dose, 48 h, read-out: growth percentage
EKVX = settings: Homo sapiens, Non-Small Cell Lung Cancer, 10 µM one dose, 48 h, read-out: growth percentage
SK-MEL-28 = settings: Homo sapiens, SK-MEL-28, Melanoma, 10 µM one dose, 48 h, read-out: growth percentage
NCI-H23 = settings: Homo sapiens, NCI-H23, Non-Small Cell Lung Cancer, 10 µM one dose, 48 h, read-out: growth percentage
HCC-2998 = settings: Homo sapiens, HCC-2998, Colon Cancer, 10 µM one dose, 48 h, read-out: growth percentage
OVCAR-4 = settings: Homo sapiens, OVCAR-4, Ovarian Cancer, 10 µM one dose, 48 h, read-out: growth percentage
M14 = settings: Homo sapiens, M14, Melanoma, 10 µM one dose, 48 h, read-out: growth percentage
NCI/ADR-RES = settings: Homo sapiens, Ovarian Cancer, 10 µM one dose, 48 h, read-out: growth percentage
MDA-MB-468 = settings: Homo sapiens, MDA-MB-468, Breast Cancer, 10 µM one dose, 48 h, read-out: growth percentage
BT-549 = settings: Homo sapiens, BT-549, Breast Cancer, 10 µM one dose, 48 h, read-out: growth percentage
OVCAR-8 = settings: Homo sapiens, OVCAR-8, Ovarian Cancer, 10 µM one dose, 48 h, read-out: growth percentage
RPMI-8226 = settings: Homo sapiens, RPMI-8226, Leukemia, 10 µM one dose, 48 h, read-out: growth percentage
HOP-92 = settings: Homo sapiens, HOP-92, Non-Small Cell Lung Cancer, 10 µM one dose, 48 h, read-out: growth percentage
MDA-MB-435 = settings: Homo sapiens, MDA-MB-435, Melanoma, 10 µM one dose, 48 h, read-out: growth percentage
A549/ATCC = settings: Homo sapiens, Non-Small Cell Lung Cancer, 10 µM one dose, 48 h, read-out: growth percentage
NCI-H522 = settings: Homo sapiens, NCI-H522, Non-Small Cell Lung Cancer, 10 µM one dose, 48 h, read-out: growth percentage
IGROV1 = settings: Homo sapiens, IGROV-1, IGROV1, Ovarian Cancer, 10 µM one dose, 48 h, read-out: growth percentage

SMILES | activity at 10 µM (SNB-19) [%] | activity at 10 µM (TK-10) [%] | activity at 10 µM (UO-31) [%] | activity at 10 µM (786-0) [%] | activity at 10 µM (SK-MEL-2) [%] | activity at 10 µM (RXF 393) [%] | activity at 10 µM (EKVX) [%] | activity at 10 µM (SK-MEL-28) [%] | activity at 10 µM (NCI-H23) [%] | activity at 10 µM (HCC-2998) [%] | activity at 10 µM (OVCAR-4) [%] | activity at 10 µM (M14) [%] | activity at 10 µM (NCI/ADR-RES) [%] | activity at 10 µM (MDA-MB-468) [%] | activity at 10 µM (BT-549) [%] | activity at 10 µM (OVCAR-8) [%] | activity at 10 µM (HOP-92) [%] | activity at 10 µM (MDA-MB-435) [%] | activity at 10 µM (A549/ATCC) [%] | activity at 10 µM (NCI-H522) [%] | other results
[O-][n+]1onc(-c2ccccc2)c1COc1ccc(Nc2ncnc3c2cnn3-c2ccccc2)cc1 [6a, 4-phenyl-3-((4-((1-phenyl-1H-pyrazolo[3,4-d]pyrimidin-4-yl)amino)phenoxy)methyl)-1,2,5-oxadiazole 2-oxide] | 105 | 103 | 94.2 | 115 | 105 | 98.4 | 98.9 | 104 | 105 | 106 | 130 | 104 | 102 | 107 | 95.4 | 105 | 115 | 114 | 96 | 99.2 | activity at 10 µM (RPMI-8226): 104%; activity at 10 µM (IGROV1): 95%
Cc1nc(Nc2ccc(OCc3c(-c4ccccc4)no[n+]3[O-])cc2)c2cnn(-c3ccccc3)c2n1 [6b, 3-((4-((6-methyl-1-phenyl-1H-pyrazolo[3,4-d]pyrimidin-4-yl)amino)phenoxy)methyl)-4-phenyl-1,2,5-oxadiazole 2-oxide] | 99.3 | 94.8 | 95 | 95.8 | 109 | 111 | 93.1 | 101 | 102 | 108 | 102 | 103 | 103 | 94.3 | 95 | 105 | 91.4 | 99.7 | 101 | 96.3 | activity at 10 µM (RPMI-8226): 114%; activity at 10 µM (IGROV1): 101%
Cc1nn(-c2ccccc2)c2ncnc(Nc3ccc(OCc4c(-c5ccccc5)no[n+]4[O-])cc3)c12 [6c, 3-((4-((3-methyl-1-phenyl-1H-pyrazolo[3,4-d]pyrimidin-4-yl)amino)phenoxy)methyl)-4-phenyl-1,2,5-oxadiazole 2-oxide] | 101 | 110 | 77 | 107 | 103 | 112 | 90.4 | 102 | 98.1 | 106 | 90.6 | 90.3 | 91.7 | 97.1 | 101 | 101 | 91.2 | 93.4 | 99.3 | 84.8 | activity at 10 µM (RPMI-8226): 94%; activity at 10 µM (IGROV1): 97.1%
Cc1nc(Nc2ccc(OCc3c(-c4ccccc4)no[n+]3[O-])cc2)c2c(C)nn(-c3ccccc3)c2n1 [6d, 3-((4-((3,6-dimethyl-1-phenyl-1H-pyrazolo[3,4-d]pyrimidin-4-yl)amino)phenoxy)methyl)-4-phenyl-1,2,5-oxadiazole 2-oxide] | 99.6 | 126 | 88.5 | 107 | 121 | 119 | 102 | 102 | 102 | 107 | 103 | 96.2 | 102 | 107 | 102 | 107 | 104 | 105 | 103 | 105 | activity at 10 µM (RPMI-8226): 106%; activity at 10 µM (IGROV1): 106%
[O-][n+]1onc(-c2ccccc2)c1COc1ccc(Nc2ncnc3c2cnn3-c2ccc(Br)cc2)cc1 [6e, 3-((4-((1-(4-bromophenyl)-1H-pyrazolo[3,4-d]pyrimidin-4-yl)amino)phenoxy)methyl)-4-phenyl-1,2,5-oxadiazole 2-oxide] | 103 | 107 | 84.7 | 96.1 | 99.2 | 119 | 96.3 | 99.3 | 101 | 106 | 100 | 102 | 107 | 106 | 95.8 | 105 | 109 | 94.5 | 93.5 | 96.1 | activity at 10 µM (RPMI-8226): 111%; activity at 10 µM (IGROV1): 106%
Cc1nc(Nc2ccc(OCc3c(-c4ccccc4)no[n+]3[O-])cc2)c2cnn(-c3ccc(Br)cc3)c2n1 [6f, 3-((4-((1-(4-bromophenyl)-6-methyl-1H-pyrazolo[3,4-d]pyrimidin-4-yl)amino)phenoxy)methyl)-4-phenyl-1,2,5-oxadiazole 2-oxide] | 91.5 | 97.7 | 82.7 | 82.2 | 114 | 121 | 91.4 | 103 | 95.8 | 104 | 99.5 | 94.2 | 106 | 111 | 94.5 | 106 | 111 | 94.5 | 94.9 | 92.5 | activity at 10 µM (RPMI-8226): 115%; activity at 10 µM (IGROV1): 101%
Cc1nn(-c2ccc(Br)cc2)c2ncnc(Nc3ccc(OCc4c(-c5ccccc5)no[n+]4[O-])cc3)c12 [6g, 3-((4-((1-(4-bromophenyl)-3-methyl-1H-pyrazolo[3,4-d]pyrimidin-4-yl)amino)phenoxy)methyl)-4-phenyl-1,2,5-oxadiazole 2-oxide] | 99.2 | 123 | 81.5 | 122 | 101 | 131 | 83.5 | 99.5 | 95 | 104 | 95.7 | 94 | 93.8 | 97.4 | 104 | 93.9 | 86.5 | 101 | 97.3 | 92 | activity at 10 µM (RPMI-8226): 108%; activity at 10 µM (IGROV1): 88.2%
Cc1nn(-c2ccccc2)c2nc(CCl)[nH]c(=O)c12 [13b] | 89.4 | 63.2 | -86.3 | 122 | 97.9 | 99.2 | 99.2 | 105 | 98.8 | 108 | 90.9 | 103 | 102 | 26.6 | 100 | 112 | 117 | 99 | 97.7 | 89.8 | activity at 10 µM (IGROV1): 96.2%
